According to ChEMBL document CHEMBL1212904, “Discovery of pyrrole-indoline-2-ones as Aurora kinase inhibitors with a different inhibition profile” (J Med Chem, 2010):

Assays:
Aurora kinase A = target: T1, Aurora kinase A (Homo sapiens, UniProt O14965); assay: Inhibition of recombinant aurora A
T1 sequence (O14965 whole entry): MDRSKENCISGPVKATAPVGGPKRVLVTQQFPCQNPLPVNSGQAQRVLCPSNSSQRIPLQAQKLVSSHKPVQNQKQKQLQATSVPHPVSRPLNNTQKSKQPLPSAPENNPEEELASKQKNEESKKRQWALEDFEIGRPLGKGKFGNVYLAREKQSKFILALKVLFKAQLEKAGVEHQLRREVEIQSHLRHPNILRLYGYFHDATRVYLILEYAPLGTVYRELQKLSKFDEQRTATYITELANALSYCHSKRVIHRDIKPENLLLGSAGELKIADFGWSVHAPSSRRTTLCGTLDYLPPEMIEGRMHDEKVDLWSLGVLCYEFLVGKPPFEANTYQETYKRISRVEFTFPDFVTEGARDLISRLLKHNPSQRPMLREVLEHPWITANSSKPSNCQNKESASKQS

Aurora kinase B [1] = target: T2, Aurora kinase B (Homo sapiens, UniProt Q96GD4); assay: Inhibition of recombinant aurora B at 1 uM
[2] = target: T3, Aurora kinase A (Homo sapiens) (UniProt O14965); assay: Inhibition of recombinant aurora A at 1 uM
T3 sequence (whole entry): T1 sequence (O14965 whole entry)

Aurora kinase B [3] = target: T2, Aurora kinase B; assay: Inhibition of recombinant aurora B
HCT-116 [4] = assay: Antiproliferative activity against human HCT116 cells after 72 hrs by cell titer 96 assay; format: functional, cell-based; settings: HCT-116, 72 h
HT-29 = assay: Antiproliferative activity against human HT-29 cells after 72 hrs by cell titer 96 assay; format: functional, cell-based; settings: HT-29, 72 h
HeLa = assay: Antiproliferative activity against human HeLa cells after 72 hrs by cell titer 96 assay; format: functional, cell-based
HCT-116 [5] = assay: Antiproliferative activity against human HCT116 cells after 72 hrs by [3H]thymidine incorporation assay; format: functional, cell-based

T2 sequence (Q96GD4 whole entry): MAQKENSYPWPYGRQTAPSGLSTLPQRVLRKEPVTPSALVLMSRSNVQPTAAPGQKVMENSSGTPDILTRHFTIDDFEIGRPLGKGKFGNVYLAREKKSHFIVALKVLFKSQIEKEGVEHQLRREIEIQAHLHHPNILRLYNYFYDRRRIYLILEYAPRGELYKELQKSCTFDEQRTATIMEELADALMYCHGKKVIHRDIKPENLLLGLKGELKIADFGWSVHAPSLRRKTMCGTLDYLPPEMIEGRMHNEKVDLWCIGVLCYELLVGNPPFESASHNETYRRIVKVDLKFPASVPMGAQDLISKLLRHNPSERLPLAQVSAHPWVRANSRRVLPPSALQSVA

IC50 (Aurora kinase A) | inhibition (Aurora kinase B [1]) | Structure (SMILES) | other results
39 nM | 32.5% | C=CCS(=O)(=O)c1ccc2c(c1)/C(=C/c1[nH]c3c(c1CCC(=O)O)C(=O)CCC3)C(=O)N2 | –
– | 2.6% | CNS(=O)(=O)c1ccc2c(c1)/C(=C/c1[nH]c3c(c1CCC(=O)O)C(=O)CCC3)C(=O)N2 | –
– | 3% | CCOC(=O)CCc1c(/C=C2\C(=O)Nc3ccc(F)cc32)[nH]c2c1C(=O)CCC2 | –
– | 2% | O=C(O)CCc1c(/C=C2\C(=O)Nc3ccc(F)cc32)[nH]c2c1C(=O)CCCC2 | inhibition [2]: 45.5%
2270 nM | – | CN(C)CCCc1c(/C=C2\C(=O)Nc3ccc(S(=O)(=O)N4CCc5ccccc54)cc32)[nH]c2c1C(=O)CCC2 | IC50 (Aurora kinase B [3]): 312 nM; IC50 (HCT-116 [4]): 900 nM; IC50 (HT-29): 750 nM; IC50 (HeLa): 1620 nM
– | 11.2% | O=C(O)CCc1c(/C=C2\C(=O)Nc3ccc(S(=O)(=O)Cc4ccccc4)cc32)[nH]c2c1C(=O)CCC2 | –
– | 21% | O=C(O)CCc1c(/C=C2\C(=O)Nc3ccc(NS(=O)(=O)c4ccc5ccccc5c4)cc32)[nH]c2c1C(=O)CCC2 | inhibition [2]: 40.6%
563 nM | – | O=C1Nc2ccc(S(=O)(=O)N3CCc4ccccc43)cc2/C1=C/c1[nH]c2c(c1CCC(=O)N1CCOCC1)C(=O)CCC2 | IC50 (Aurora kinase B [3]): 3150 nM; IC50 (HCT-116 [4]): > 10000 nM; IC50 (HT-29): > 10000 nM; IC50 (HeLa): > 10000 nM
2340 nM | – | CCN(CC)CCCc1c(/C=C2\C(=O)Nc3ccc(S(=O)(=O)N4CCc5ccccc54)cc32)[nH]c2c1C(=O)CCC2 | IC50 (Aurora kinase B [3]): 616 nM; IC50 (HCT-116 [4]): 2660 nM; IC50 (HT-29): 2130 nM; IC50 (HeLa): 3270 nM
456 nM | 17.3% | CC1(C)CC(=O)c2c([nH]c(/C=C3\C(=O)Nc4ccc(F)cc43)c2CCC(=O)O)C1 | –
362 nM | 17.5% | CC(=O)c1c(C)[nH]c(/C=C2\C(=O)Nc3ccc(F)cc32)c1CCC(=O)O | –
218 nM | – | O=C1Nc2ccc(NS(=O)(=O)c3ccccc3)cc2/C1=C/c1[nH]c2c(c1CCC(=O)N1CCCC1)C(=O)CCC2 | IC50 (Aurora kinase B [3]): 719 nM; IC50 (HCT-116 [4]): > 10000 nM; IC50 (HT-29): > 10000 nM; IC50 (HeLa): > 10000 nM
720 nM | 14.2% | O=C(O)CCc1c(/C=C2\C(=O)Nc3ccc(NC(=O)c4ccccc4)cc32)[nH]c2c1C(=O)CCC2 | –
2170 nM | – | O=C1Nc2ccc(NS(=O)(=O)c3ccccc3)cc2/C1=C/c1[nH]c2c(c1CCCN1CCCC1)C(=O)CCC2 | IC50 (Aurora kinase B [3]): 310 nM; IC50 (HCT-116 [4]): > 10000 nM; IC50 (HT-29): 3320 nM; IC50 (HeLa): > 10000 nM
– | 12.4% | COc1cc(-c2ccc3c(c2)/C(=C/c2[nH]c4c(c2CCC(=O)O)C(=O)CCC4)C(=O)N3)ccc1O | –
2450 nM | – | CCN(CC)CCCc1c(/C=C2\C(=O)Nc3ccc(NS(=O)(=O)c4ccccc4)cc32)[nH]c2c1C(=O)CCC2 | IC50 (Aurora kinase B [3]): 356 nM; IC50 (HCT-116 [4]): > 10000 nM; IC50 (HT-29): > 10000 nM; IC50 (HeLa): 8610 nM
34 nM | 7.3% | CCS(=O)(=O)Nc1ccc2c(c1)/C(=C/c1[nH]c3c(c1CCC(=O)O)C(=O)CCC3)C(=O)N2 | –

IC50 (Aurora kinase A) | inhibition (Aurora kinase B [1]) | Structure (SMILES) | other results
281 nM | – | O=C1Nc2ccc(NS(=O)(=O)c3ccccc3)cc2/C1=C/c1[nH]c2c(c1CCC(=O)N1CCOCC1)C(=O)CCC2 | IC50 (Aurora kinase B [3]): 906 nM; IC50 (HCT-116 [4]): > 10000 nM; IC50 (HT-29): > 10000 nM; IC50 (HeLa): > 10000 nM
– | 34.1% | NS(=O)(=O)c1ccc2c(c1)/C(=C/c1[nH]c3c(c1CCC(=O)O)C(=O)CCC3)C(=O)N2 | –
21 nM | – | CN(C)S(=O)(=O)c1ccc2c(c1)/C(=C/c1[nH]c3c(c1CCC(=O)O)C(=O)CCC3)C(=O)N2 | –
57 nM | 7% | CCS(=O)(=O)c1ccc2c(c1)/C(=C/c1[nH]c3c(c1CCC(=O)O)C(=O)CCC3)C(=O)N2 | –
– | 13% | O=C(O)CCc1c(/C=C2\C(=O)Nc3ccccc32)[nH]c2c1C(=O)CCC2 | –
– | 5.1% | COc1ccc(-c2ccc3c(c2)/C(=C/c2[nH]c4c(c2CCC(=O)O)C(=O)CCC4)C(=O)N3)cc1OC | –
– | 11.6% | O=C(O)CCc1c(/C=C2\C(=O)Nc3ccc(F)cc32)[nH]c2c1C(=O)CCC2 | –
117 nM | – | CNC(=O)CCc1c(/C=C2\C(=O)Nc3ccc(NS(=O)(=O)c4ccccc4)cc32)[nH]c2c1C(=O)CCC2 | IC50 (Aurora kinase B [3]): 320 nM; IC50 (HCT-116 [4]): > 10000 nM; IC50 (HT-29): > 10000 nM; IC50 (HeLa): > 10000 nM
– | 15.5% | O=C(O)CCc1c(/C=C2\C(=O)Nc3ccc(S(=O)(=O)Cc4ccc(F)cc4)cc32)[nH]c2c1C(=O)CCC2 | –
12 nM | – | O=C(O)CCc1c(/C=C2\C(=O)Nc3ccc(NS(=O)(=O)c4ccccc4)cc32)[nH]c2c1C(=O)CCC2 | IC50 (HCT-116 [4]): > 10000 nM; IC50 (HCT-116 [5]): > 10000 nM; IC50 (HT-29): > 10000 nM
– | 2.3% | CCOC(=O)CCc1c(/C=C2\C(=O)Nc3ccccc32)[nH]c2c1C(=O)CCC2 | –
8 nM | – | O=C(O)CCc1c(/C=C2\C(=O)Nc3ccc(S(=O)(=O)N4CCc5ccccc54)cc32)[nH]c2c1C(=O)CCC2 | –
– | 3.4% | O=C(O)CCc1c(/C=C2\C(=O)Nc3ccc([N+](=O)[O-])cc32)[nH]c2c1C(=O)CCC2 | –
7 nM | – | O=C(O)CCc1c(/C=C2\C(=O)Nc3ccc(S(=O)(=O)N4CCCC4)cc32)[nH]c2c1C(=O)CCC2 | –
– | 6.8% | O=C(O)CCc1c(/C=C2\C(=O)Nc3ccc(Br)cc32)[nH]c2c1C(=O)CCC2 | –
– | 12.8% | CC(=O)Nc1ccc2c(c1)/C(=C/c1[nH]c3c(c1CCC(=O)O)C(=O)CCC3)C(=O)N2 | –
